Source: patent publication US8802597B2, “Herbicidal pyrimidines” (E I du Pont de Nemours and Company, priority 2003, dated 2014)
Like-named read-outs stand apart in the source and are kept apart here.

Key:
Format in all cases: in vivo
[1] = tested on: chickweed (Stellaria media); assay: Test C postemergence; settings: Stellaria media, post-emergence
From the text: (§1) Seeds or nutlets of plant species selected from bermudagrass (Cynodon dactylon), Surinam grass (Brachiaria decumbens), cocklebur (Xanthium strumarium), corn (Zea mays), crabgrass (Digitaria sanguinalis), woolly cupgrass (Eriochloa villosa), giant foxtail (Setaria faberii), goosegrass (Eleusine indica), johnsongrass (Sorghum halepense), kochia (Kochia scoparia), lambsquarters (Chenopodium album), morningglory (Ipomoea coccinea), eastern black nightshade (Solanum ptycanthum), yellow nutsedge (Cyperus esculentus), pigweed (Amaranthus retroflexus), common ragweed (Ambrosia elatior), soybean (Glycine max), common (oilseed) sunflower (Helianthus annuus), and velvetleaf (Abutilon theophrasti) were planted and treated preemergence with test chemicals formulated in a non-phytotoxic solvent mixture which included a surfactant.
(§2) At the same time, plants selected from these crop and weed species and also winter barley (Hordeum vulgare), blackgrass (Alopecurus myosuroides), canarygrass (Phalaris minor), chickweed (Stellaria media), downy brome (Bromus tectorum), green foxtail (Setaria viridis), Italian ryegrass (Lolium multiflorum), wheat (Triticum aestivum), wild oat (Avena fatua) and windgrass (Apera spica-venti) were treated with postemergence applications of some of the test chemicals formulated in the same manner. Plants ranged in height from 2 to 18 cm (1- to 4-leaf stage) for postemergence treatments. Plant species in the flooded paddy test consisted of rice (Oryza sativa), umbrella sedge (Cyperus difformis), duck salad (Heteranthera limosa) and barnyardgrass (Echinochloa crus-galli) grown to the 2-leaf stage for testing. Treated plants and controls were maintained in a greenhouse for 12 to 14 days, after which time all species were compared to controls and visually evaluated. Plant response ratings, summarized in Table C, are based on a scale of 0 to 100 where 0 is no effect and 100 is complete control. A dash (-) response means no test result.

[2] = tested on: goosegrass (Eleusine indica); assay: Test C pre/postemergence; settings: Eleusine indica; for pest or weed control at 62 g/ha: 62 g ai/ha; for pest or weed control at 125 g/ha: 125 g ai/ha; for pest or weed control at 250 g/ha: 250 g ai/ha; for pest or weed control at 500 g/ha: 500 g ai/ha
From the text: as §1, §2

[3] = tested on: lambsquarters (Chenopodium album); assay: Test C pre/postemergence; settings: Chenopodium album; for pest or weed control at 62 g/ha: 62 g ai/ha; for pest or weed control at 125 g/ha: 125 g ai/ha; for pest or weed control at 250 g/ha: 250 g ai/ha; for pest or weed control at 500 g/ha: 500 g ai/ha
From the text: as §1, §2

soybean (Glycine max) = assay: Test C pre/postemergence; settings: Glycine max; for plant injury at 62 g/ha: 62 g ai/ha; for plant injury at 125 g/ha: 125 g ai/ha; for plant injury at 250 g/ha: 250 g ai/ha; for plant injury at 500 g/ha: 500 g ai/ha
From the text: as §1, §2

corn (Zea mays) = assay: Test C pre/postemergence; settings: Zea mays; for Corn plant response rating (crop injury, 0 = no effect, 100 = complete kill) at 62 g/ha: 62 g ai/ha; for Corn plant response rating (crop injury, 0 = no effect, 100 = complete kill) at 125 g/ha: 125 g ai/ha; for Corn plant response rating (crop injury, 0 = no effect, 100 = complete kill) at 250 g/ha: 250 g ai/ha; for Corn plant response rating (crop injury, 0 = no effect, 100 = complete kill) at 500 g/ha: 500 g ai/ha
From the text: as §1, §2

[4] = post-emergence, Postemergence, scale 0 to 100 (0 no effect, 100 complete control), read-out: Goosegrass plant response rating
[5] = post-emergence, Postemergence, scale 0 to 100, read-out: Plant response rating, Goosegrass
[6] = pre-emergence, Preemergence, scale 0 to 100, read-out: Plant response rating, Goosegrass
[7] = post-emergence, Postemergence, scale 0 to 100 (0 no effect, 100 complete control), read-out: Lambsquarters plant response rating
[8] = post-emergence, Postemergence, scale 0 to 100, read-out: Plant response rating, Lambsquarters
[9] = pre-emergence, Preemergence, scale 0 to 100, read-out: Plant response rating, Lambsquarters
[10] = post-emergence, Postemergence, scale 0 to 100 (0 no effect, 100 complete control), read-out: Soybean plant response rating
[11] = post-emergence, Postemergence, scale 0 to 100, read-out: Plant response rating, Soybean
[12] = pre-emergence, Preemergence, scale 0 to 100, read-out: Plant response rating, Soybean
[13] = post-emergence, Postemergence, scale 0 to 100 (0 no effect, 100 complete control), read-out: Corn plant response rating
[14] = post-emergence, Postemergence, scale 0 to 100
[15] = pre-emergence, Preemergence, scale 0 to 100

With `CNc1nc(C2CC2)nc(C(=O)OC)c1Br` [Compound 5] the pest or weed control at 62 g/ha ([1]; 62 g ai/ha, scale 0 to 100 (0 no effect, 100 complete control), read-out: Chickweed plant response rating) was 0%, the pest or weed control at 125 g/ha ([1]; 125 g ai/ha, scale 0 to 100, read-out: Plant response rating, Chickweed) was 10% and the pest or weed control at 250 g/ha ([1]; 250 g ai/ha, scale 0 to 100, read-out: Plant response rating, Chickweed) was 20%. The pest or weed control at 62 g/ha [2, 4] was 0%, the pest or weed control at 125 g/ha [2, 4] was 5% and the pest or weed control at 250 g/ha [2, 5] was 40%. For the same compound, the pest or weed control at 500 g/ha [2, 5] was 50%, the pest or weed control at 62 g/ha ([2]; pre-emergence, Preemergence, scale 0 to 100, 0 no effect, 100 complete control, read-out: Plant response rating, Goosegrass) was 0% and the pest or weed control at 125 g/ha [2, 6] was 0%. The pest or weed control at 250 g/ha [2, 6] was 0%, the pest or weed control at 500 g/ha [2, 6] was 40% and the pest or weed control at 62 g/ha [3, 7] was 95%. It also gave a pest or weed control at 125 g/ha [3, 7] of 100%, a pest or weed control at 250 g/ha [3, 8] of 100% and a pest or weed control at 500 g/ha [3, 8] of 100%. The pest or weed control at 62 g/ha ([3]; pre-emergence, Preemergence, scale 0 to 100, 0 no effect, 100 complete control, read-out: Plant response rating, Lambsquarters) was 95%, the pest or weed control at 125 g/ha [3, 9] was 95% and the pest or weed control at 250 g/ha [3, 9] was 100%. It also gave a pest or weed control at 500 g/ha [3, 9] of 100%, a plant injury at 62 g/ha (soybean (Glycine max); [10]) of 95% and a plant injury at 125 g/ha (soybean (Glycine max); [10]) of 100%. For the same compound, the plant injury at 250 g/ha (soybean (Glycine max); [11]) was 100%, the plant injury at 500 g/ha (soybean (Glycine max); [11]) was 100% and the plant injury at 62 g/ha (soybean (Glycine max); pre-emergence, Preemergence, scale 0 to 100, 0 no effect, 100 complete control, read-out: Plant response rating, Soybean) was 85%. For the same compound, the plant injury at 125 g/ha (soybean (Glycine max); [12]) was 90%, the plant injury at 250 g/ha (soybean (Glycine max); [12]) was 98% and the plant injury at 500 g/ha (soybean (Glycine max); [12]) was 100%. The Corn plant response rating (crop injury, 0 = no effect, 100 = complete kill) at 62 g/ha (corn (Zea mays); [13]) was 10%, the Corn plant response rating (crop injury, 0 = no effect, 100 = complete kill) at 125 g/ha (corn (Zea mays); [13]) was 40% and the Corn plant response rating (crop injury, 0 = no effect, 100 = complete kill) at 250 g/ha (corn (Zea mays); [14]) was 40%. It also gave a Corn plant response rating (crop injury, 0 = no effect, 100 = complete kill) at 500 g/ha (corn (Zea mays); [14]) of 45%, a Corn plant response rating (crop injury, 0 = no effect, 100 = complete kill) at 62 g/ha (corn (Zea mays); pre-emergence, Preemergence, scale 0 to 100, 0 no effect, 100 complete control, read-out: Plant response rating, Corn) of 5% and a Corn plant response rating (crop injury, 0 = no effect, 100 = complete kill) at 125 g/ha (corn (Zea mays); pre-emergence, Preemergence, scale 0 to 100, read-out: Plant response rating, Corn) of 5%. For the same compound, the Corn plant response rating (crop injury, 0 = no effect, 100 = complete kill) at 250 g/ha (corn (Zea mays); [15]) was 20% and the Corn plant response rating (crop injury, 0 = no effect, 100 = complete kill) at 500 g/ha (corn (Zea mays); [15]) was 50%.
